# Active and inactive are the calls of the source. The calls are words filed in the database; no cut-off is given here.
# Legend:
# [1] = Reduction in C26:0 LPC level in wild-type C57BL/6 mouse blood at 2 to 32 mg/kg, po qd for 105 days by LC-MS/MS analysis relative to control; type: functional; design: scale not given: the % may be the effect or the level left; conditions: dose 2-32 mg/kg, time 105 day
# [2] = Reduction in C26:0/C16:0 LPC level in wild-type Sprague-Dawley rat at 30 mg/kg, po qd treated for 7 days by LC-MS/MS analysis; type: functional; design: scale not given: the % may be the effect or the level left; conditions: time 7 day
# [3] = target: Voltage-gated inwardly rectifying potassium channel KCNH2 (Homo sapiens, UniProt Q12809); experiment: Inhibition of human ERG by patch-clamp assay; type: toxicity
# [4] = Toxicity in juvenile Sprague-Dawley rat assessed as ocular inflammation at 5 to 75 mg/kg/day, po treatment started from postnatal day 18 to 114 days; type: organism-based; conditions: in vivo, dose lower 5 mg/kg/day, time lower 18 day, dose upper 75 mg/kg/day, time upper 114 day
# [5] = Tmax in Cynomolgus monkey at 3 mg/kg, po upto 24 hrs by LC/MS/MS analysis; type: ADME, organism-based, Macaca fascicularis; conditions: in vivo
# [6] = Toxicity in Sprague-Dawley rat assessed as reversal of lesions at 5 to 50 mg/kg/day, po administered for 8 weeks and measured after cessation dosing; type: organism-based; conditions: in vivo, 1344 h, dose 5-50 mg/kg/day
# [7] = target: T1, Very long chain fatty acid elongase 7 (Homo sapiens, UniProt A1L3X0); experiment: Inhibition of ELOVL7 (unknown origin) using C18-acyl-CoA as substrate by radiometric enzyme assay
# T1 sequence (A1L3X0 whole entry): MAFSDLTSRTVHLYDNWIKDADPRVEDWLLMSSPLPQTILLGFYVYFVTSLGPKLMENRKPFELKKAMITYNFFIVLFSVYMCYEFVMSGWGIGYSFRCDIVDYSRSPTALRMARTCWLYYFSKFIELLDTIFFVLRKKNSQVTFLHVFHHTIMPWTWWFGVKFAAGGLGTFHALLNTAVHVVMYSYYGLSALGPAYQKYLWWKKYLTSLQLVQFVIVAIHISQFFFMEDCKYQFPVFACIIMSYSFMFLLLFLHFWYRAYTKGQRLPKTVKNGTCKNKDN
# [8] = target: T2, Adenosine receptor A3 (Homo sapiens) (UniProt P0DMS8); experiment: Inhibition of Adenosine A3 Receptor (unknown origin) at 10 uM
# T2 sequence (whole entry): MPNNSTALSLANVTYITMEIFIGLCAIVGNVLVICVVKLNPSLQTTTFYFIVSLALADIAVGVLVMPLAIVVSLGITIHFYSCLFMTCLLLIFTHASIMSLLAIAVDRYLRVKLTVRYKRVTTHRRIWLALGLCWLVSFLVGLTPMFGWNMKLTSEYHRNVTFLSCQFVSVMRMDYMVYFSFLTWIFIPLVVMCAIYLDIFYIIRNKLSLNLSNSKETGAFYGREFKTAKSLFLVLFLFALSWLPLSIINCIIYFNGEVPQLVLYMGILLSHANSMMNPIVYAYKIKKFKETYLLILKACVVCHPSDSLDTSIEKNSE
# [9] = Toxicity in Sprague-Dawley rat assessed as ocular focal cellular disorganization at 5 mg/kg/day, po administered for 8 weeks by microscopic observation analysis; type: organism-based; conditions: in vivo, 1344 h
# [10] = Intrinsic clearance in rat hepatocytes assessed per million cells; type: ADME, cell-based, Hepatocyte; conditions: read-out: CLH
# [11] = test system: Mus musculus; experiment: Reduction in C26:0 LPC level in wild-type C57BL/6 mouse blood administered orally qd for 105 days by LC-MS/MS analysis; type: functional, tissue-based; conditions: route po, time 105.0 day, DDE = dose-dependent effect
# [12] = test system: Mus musculus; experiment: Reversal of loss of thermal pain sensitivity in ABCD1 knock out mouse assessed as increase in latency at 8 to 32 mg/kg, po qd treated for 6 months by Hargreaves test; type: functional, organism-based; conditions: dose 8-32 mg/kg
# [13] = Toxicity in juvenile Sprague-Dawley rat assessed as clonic convulsions 5 to 75 mg/kg/day, po treatment started from postnatal day 75 to 114 days measured after cessation of dosing; type: organism-based; conditions: in vivo, dose lower 5 mg/kg/day, time lower 75 day, dose upper 75 mg/kg/day, time upper 114 day
# [14] = test system: Mus musculus; experiment: Reduction in C26:0/C16:0 LPC level in high fat diet fed ABCD1 knock out mouse blood at 1 to 8 mg/kg, po qd measured on day 28 after 7 days of treatment discontinuation by LC-MS/MS analysis; type: functional, organism-based; conditions: dose 1-8 mg/kg, time 28.0 day
# [15] = Reduction in C26:0/C16:0 LPC level in ABCD1 knock out mouse CNS at 10 mg/kg, po qd measured after 3 months of dosing by LC-MS/MS analysis; type: functional; design: scale not given: the % may be the effect or the level left; conditions: 2190 h
# [16] = Increase in C20:0/C16:0 LPC level in ABCD1 knock out mouse CNS at 1 mg/kg, po qd measured after 3 months of dosing by LC-MS/MS analysis; type: functional; conditions: 2190 h
# [17] = target: T3, Very long chain fatty acid elongase 1 (Homo sapiens, UniProt Q9BW60); experiment: Inhibition of ELOVL1 in CALD patient-derived human lymphocyte assessed as reduction of C26:0 VLCFA synthesis incubated for 48 hrs by cellular assay; type: cell-based
# T3 sequence (Q9BW60 whole entry): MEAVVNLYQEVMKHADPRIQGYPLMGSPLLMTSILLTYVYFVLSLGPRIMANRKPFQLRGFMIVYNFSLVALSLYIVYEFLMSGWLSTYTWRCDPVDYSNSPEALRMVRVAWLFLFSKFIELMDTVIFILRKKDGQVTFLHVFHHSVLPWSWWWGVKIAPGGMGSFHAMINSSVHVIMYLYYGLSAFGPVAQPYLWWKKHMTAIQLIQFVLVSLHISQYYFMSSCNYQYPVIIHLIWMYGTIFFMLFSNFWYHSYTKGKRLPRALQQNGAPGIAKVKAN
# [18] = Volume of distribution at steady state in Cynomolgus monkey at 1 mg/kg, iv upto 48 hrs by LC/MS/MS analysis; type: ADME, organism-based, Macaca fascicularis; conditions: in vivo, read-out: Vdss
# [19] = Reduction in C26:0/C16:0 acyl-carnitine levels in ABCD1 knock out mouse CNS at 8 mg/kg, po qd measured after 28 days of dosing by LC-MS/MS analysis; type: functional; design: scale not given: the % may be the effect or the level left; conditions: time 28 day
# [20] = Toxicity in Cynomolgus monkey assessed as skin lesions at 1 mg/kg/day, po observed from 8 to 13 weeks; type: organism-based, Macaca fascicularis; conditions: in vivo, time 8-13 weeks
# [21] = Increase in C20:0/C16:0 total VLCFA levels in ABCD1 knock out mouse CNS at 1 to 10 mg/kg, po qd measured after 3 months of dosing by LC-MS/MS analysis; type: functional; conditions: dose 1-10 mg/kg, 2190 h
# [22] = Toxicity in Sprague-Dawley rat assessed as ulceration at 5 to 50 mg/kg/day, po administered for 2 to 8 weeks; type: organism-based; conditions: in vivo, dose lower 5 mg/kg/day, time lower 2 weeks, dose upper 50 mg/kg/day, time upper 8 weeks
# [23] = Reduction in C26:0 LPC level in ABCD1 knock out mouse CNS at 4 mg/kg, po qd measured after 6 months of dosing by LC-MS/MS analysis; type: functional; design: scale not given: the % may be the effect or the level left; conditions: 4380 h
# [24] = Volume of distribution at steady state in mouse at 1 mg/kg, iv upto 48 hrs by LC/MS/MS analysis; type: ADME, organism-based; conditions: in vivo, read-out: Vdss
# Chain of Voltage-gated inwardly rectifying potassium channel KCNH2 (Q12809 whole entry): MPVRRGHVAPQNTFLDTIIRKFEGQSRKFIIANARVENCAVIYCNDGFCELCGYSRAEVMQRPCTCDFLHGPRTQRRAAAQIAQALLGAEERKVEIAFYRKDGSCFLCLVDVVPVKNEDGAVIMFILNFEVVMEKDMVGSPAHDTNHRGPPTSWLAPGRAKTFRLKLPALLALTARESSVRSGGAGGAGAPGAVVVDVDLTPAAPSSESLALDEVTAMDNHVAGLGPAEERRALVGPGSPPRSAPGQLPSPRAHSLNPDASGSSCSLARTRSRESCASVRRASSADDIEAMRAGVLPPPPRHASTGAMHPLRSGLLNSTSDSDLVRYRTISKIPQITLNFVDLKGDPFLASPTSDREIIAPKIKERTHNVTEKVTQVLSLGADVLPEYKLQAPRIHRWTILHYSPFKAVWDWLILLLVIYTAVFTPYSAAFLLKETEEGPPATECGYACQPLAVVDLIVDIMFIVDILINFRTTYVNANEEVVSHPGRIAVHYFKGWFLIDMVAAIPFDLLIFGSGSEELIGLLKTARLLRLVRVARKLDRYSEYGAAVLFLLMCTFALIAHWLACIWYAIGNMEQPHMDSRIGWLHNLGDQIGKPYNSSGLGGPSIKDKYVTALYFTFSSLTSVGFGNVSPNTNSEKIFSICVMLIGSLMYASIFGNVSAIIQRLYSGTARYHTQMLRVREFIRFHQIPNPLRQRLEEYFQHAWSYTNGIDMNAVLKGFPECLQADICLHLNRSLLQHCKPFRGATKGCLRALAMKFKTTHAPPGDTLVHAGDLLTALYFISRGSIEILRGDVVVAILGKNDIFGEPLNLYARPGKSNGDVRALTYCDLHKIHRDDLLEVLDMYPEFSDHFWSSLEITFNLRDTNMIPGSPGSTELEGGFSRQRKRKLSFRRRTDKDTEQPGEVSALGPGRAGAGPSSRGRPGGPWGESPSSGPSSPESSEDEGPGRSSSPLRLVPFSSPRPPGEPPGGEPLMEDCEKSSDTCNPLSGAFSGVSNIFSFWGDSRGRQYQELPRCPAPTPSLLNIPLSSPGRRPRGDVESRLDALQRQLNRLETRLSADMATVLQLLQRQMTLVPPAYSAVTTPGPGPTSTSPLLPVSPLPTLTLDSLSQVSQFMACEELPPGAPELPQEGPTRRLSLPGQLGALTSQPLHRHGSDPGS
structure (smiles),measurement,setting,value
O=C(Nc1ccn(-c2ccnc(F)c2)n1)C1(c2ccccc2F)CC1,Activity,[1],67%
same,Activity,[2],67%
same,IC50,[3],> 30 µM
same,Activity,[4],Toxic
same,Tmax,[5],2.3 h
same,Activity,[6],Non-Toxic
same,IC50,[7],> 500 µM
same,inhibition,[8],> 50%
same,Activity,[9],Toxic
same,hepatocyte CLint,[10],14 µL/min/1e6 cells
same,Activity,[11],Dde
same,Activity,[12],Active
same,Activity,[13],Toxic
same,Activity,[14],Active
same,Activity,[15],34%
same,Activity,[16],18%
same,IC50,[17],0.015 µM
same,Vd,[18],3 L/kg
same,Activity,[19],55%
same,Activity,[20],Non-Toxic
same,Activity,[21],<6%
same,Activity,[22],Toxic
same,Activity,[23],57%
same,Vd,[24],2.6 L/kg

# Reference: ChEMBL document CHEMBL5131397, “Discovery and Optimization of Pyrazole Amides as Inhibitors of ELOVL1” (J Med Chem, 2021)
